Measured values published in US20190030018A1 (Celgene Corporation, priority 2017, published 2019).
Like-named read-outs stand apart in the source and are kept apart here.

Columns and labels:
AML cell lines = assay: In vitro combination studies, CellTitre-Glo cell viability (Bliss, Loewe, HSA, CES synergy analysis); settings: FLT3 and JAK inhibitors in combination with Compound 1 in MOLM-13 and NOMO-1 cell lines
Description: where EA and EB represent the effect of each single agent and EAB represents the effect of the combination at a given dose.
All data was analyzed using the CES equation:
In cases where single agent dose response fit a Hill slope, the CES analysis was compared to Loewe, Bliss, and HSA models.

NOMO-1 = assay: In vitro combination studies, CellTitre-Glo cell viability
F-36-P = assay: as above
OCT-AML-3 = assay: as above
HNT-34 = assay: as above
KG-1 = assay: as above
MV-4-11 = assay: as above
ML-2 = assay: as above
MOLM-13 = assay: as above
OCI-AML-2 = assay: as above
HL-60 = assay: as above
[1] = GA0087 PDX model ex vivo 3D methylcellulose CellTiter-Glo cell viability assay (IC50, matrix combination, Combination Index)
Description: (§1) Materials and Methods: The stomach cancer cell line GA0087 was used in this study. […] Culture media was purchased from GIBCO or Sigma, USA.
(§2) Everolimus was obtained from Selleck. Cisplatin was used as a reference drug, and was obtained from Hospira Australia pty Ltd.
(§3) PDX tumor models were maintained at Crownbio HuPrime animal facility. Tumor growth was monitored weekly. Tumor volumes were measured in two dimensions using a caliper, and the volume was expressed in mm^3 using the formula: V=0.5 a×b^2 where a and b are the long and short diameters of the tumor, respectively. • 2. Mouse xenografts at tumor volume around 800 mm^3 were housed with sterile surgical tools and tumor tissue was minced into tiny pieces with scissors in small amount of PBS on a new tissue culture plate. • 3. The cell suspension was filtered through Falcon cell strainer. The nylon mesh was washed 3-5 times with PBS. • 4. The cell suspension was centrifuged at 1000 rpm for 5 minutes and the pellet was washed with PBS and centrifuged again. • 5. Red blood cells were removed using red blood cell lysis buffer. • 6. The cell suspension was centrifuged at 1000 rpm for 5 minutes and the pellet was washed with PBS and centrifuged again. • 7. The cell pallet was re-suspended with appropriate cell culture media for different cells. • 8. Cells were counted with Countstar by trypan blue exclusion.
(§4) Day −1: Cell Plating • 1. The cells were harvested during the logarithmic growth period. The harvested cells were cultured with appropriate cell media and centrifuged at 1000 rpm for 3 minutes. […] (Cell concentration was adjusted according to the data base or density optimization assay). • 3. 3.5 mL of cell suspension was mixed with 6.5 mL of 1% methylcellulose. […] 90 μL cell suspensions were added to 96-well plates according to plate map with final cell density. Two duplicate plates were set up: one for day 0 reading (T0) and the other was cultured in incubator for reading at the end point.
(§5) Day 0: T0 Plate Reading and Compound Treatment • 5.10 μL culture medium was added to T0 plate in each well for T0 reading. • 6.100 μl CellTiter-Glo® Reagent was added to each well. • 7. The contents were mixed for 2 minutes on an orbital shaker to facilitate cell lysis. • 8. The plates were allowed to incubate at room temperature for 10 minutes to stabilize luminescent signal. • 9. A backseal black sticker was placed to the bottom of each plate. • 10. The luminescence was read using EnVision Multi Label Reader. • 11.
(§6) The solutions were stored at −20° C. […] The response score was calculated by normalizing to DMSO control. The combination index (CI) was calculated using Chou and Talalay method, wherein a CI of less than 1 indicates synergy. Cisplatin was used as control in the single compound dose response, but was not included in the combination test.
(§7) After drug incubation, pictures for representative wells were taken using a phase contrast microscope. • 13. 100 μL CellTiter-Glo® Reagent was added to each well. • 14. Contents were mixed for 2 minutes on an orbital shaker to facilitate cell lysis. • 15. The plates were allowed to incubate at room temperature for 10 minutes to stabilize luminescent signal. • 16. Backseal black sticker was placed to the bottom of each plate. • 17. Luminescence was recorded using EnVision Multi Label Reader.
(§8) In order to calculate IC50, a dose-response curve was fitted using nonlinear regression model with a sigmoidal dose response. The formula of surviving rate is shown below, and the IC50 was automatically produced by GraphPad Prism 5.0.
(§9) The surviving rate (%)=(LumTest article−LumMedium control)/(LumNone treated−LumMedium control)×100%.

[2] = test system: stomach cancer cell line GA0087; assay: as above
Description: as §1, §2, §3, §4, §5, §6, §7, §8, §9

[3] = test system: IL3 independent JAK2 V617F BaF3 cells; assay: Combination studies with JAK2 inhibitors in engineered BaF3 cells, CellTitre-Glo after 3 days; type: cell-based; settings: compared to the IL3 dependent lines
Description: Everolimus was included as a control. The cell viability was then measured by CellTitre-Glo® after 3 days.

[4] = NOMO-1, in combination with Compound 1
[5] = F-36-P, in combination with Compound 1
[6] = OCI-AML-3, in combination with Compound 1
[7] = HNT-34, in combination with Compound 1
[8] = KG-1, in combination with Compound 1
[9] = MV-4-11, in combination with Compound 1
[10] = ML-2, in combination with Compound 1
[11] = MOLM-13, in combination with Compound 1
[12] = OCI-AML-2, in combination with Compound 1
[13] = HL-60, in combination with Compound 1

| Compound | Synergy (AML cell lines) | Synergy analysis for combinations with Compound 1 (NOMO-1; [4]) | Synergy analysis for combinations with Compound 1 (F-36-P; [5]) | Synergy analysis for combinations with Compound 1 (OCT-AML-3; [6]) | Synergy analysis for combinations with Compound 1 (HNT-34; [7]) | Synergy analysis for combinations with Compound 1 (KG-1; [8]) | Synergy analysis for combinations with Compound 1 (MV-4-11; [9]) | Synergy analysis for combinations with Compound 1 (ML-2; [10]) | Synergy analysis for combinations with Compound 1 (MOLM-13; [11]) | Synergy analysis for combinations with Compound 1 (OCI-AML-2; [12]) | Synergy analysis for combinations with Compound 1 (HL-60; [13]) | further results |
| --- | --- | --- | --- | --- | --- | --- | --- | --- | --- | --- | --- | --- |
| C1=C/COCc2cc(ccc2OCCN2CCCC2)Nc2nccc(n2)-c2cccc(c2)COC/1 [pacritinib, reference compound] | Yes |  |  |  |  |  |  |  |  |  |  |  |
| FC(F)(F)c1ccc(CNc2ccc(Cc3c[nH]c4ncc(Cl)cc34)cn2)cn1 [Pexidartinib] | Yes | No | No | No | No | No | Yes | No | Yes | No | No |  |
| O=C(Nc1nc2cccc(-c3ccc(CN4CCS(=O)(=O)CC4)cc3)n2n1)C1CC1 [Filgotinib] | Yes |  |  |  |  |  |  |  |  |  |  |  |
| CC1(COc2ccc3c(c2)ncn3-c2ccc3cccc(N4CCC(N)CC4)c3n2)COC1 [Crenolanib] | Yes | No | No | No | No | No | Yes | No | Yes | No | No |  |
| CC[C@@](C)(Nc1ccnc(-c2c[nH]c3ncccc23)n1)C(=O)NCC(F)(F)F [Decernotinib] | Yes |  |  |  |  |  |  |  |  |  |  |  |
| CC(C)(C)c1cc(NC(=O)Nc2ccc(-c3cn4c(n3)sc3cc(OCCN5CCOCC5)ccc34)cc2)no1 [quizartinib, reference compound] | Yes |  |  |  |  |  |  |  |  |  |  |  |
| Cn1cc(-c2cc(S(C)(=O)=O)ccc2OCC2CC2)c2ccccc2c1=O [Compound A, 4-[2-(cyclopropylmethoxy)-5-(methanesulfonyl)phenyl]-2-methylisoquinolin-1(2H)-one, reference compound] |  | Yes | Yes | Yes | No | No | No | Yes | Yes | Yes | No |  |
| N.N.[Cl][Pt][Cl] [cisplatin] |  |  |  |  |  |  |  |  |  |  |  | IC50 ([1]; read-out: Absolute IC50, GA0087-1st experiment): 3.35 µM; IC50 ([1]; read-out: Absolute IC50, GA0087-2nd experiment): 3.53 µM; IC50 ([1]; read-out: Relative IC50, GA0087-1st experiment): 3.17 µM; IC50 ([1]; read-out: Relative IC50, GA0087-2nd experiment): 3.3 µM; Maximal Inhibition ([2]; GA0087-1st experiment): 98.73%; Maximal Inhibition ([2]; GA0087-2nd experiment): 98.48% |
| chloro-N,N-diethyl-5-((4-(2-(4-(3-methylureido)phenyl)pyridin-4-yl)pyrimidin-2-yl)amino)benzenesulfonamide [compound Ii, reference compound] |  | Yes | Yes | Yes | No | No | Yes | No | Yes | Yes | No |  |
| C[C@@]12OC(=O)[C@]1([C@@H](O)[C@@H]1C=CCCC1)NC(=O)[C@@H]2CCCl [NPI-0052] |  |  |  |  |  |  |  |  |  |  |  | Synergy analysis for combinations with Compound 1 (NOMO-1): No; Synergy analysis for combinations with Compound 1 (F-36-P): No; Synergy analysis for combinations with Compound 1 (OCT-AML-3): No; Synergy analysis for combinations with Compound 1 (HNT-34): No; Synergy analysis for combinations with Compound 1 (KG-1): No; Synergy analysis for combinations with Compound 1 (MV-4-11): No; Synergy analysis for combinations with Compound 1 (ML-2): No; Synergy analysis for combinations with Compound 1 (MOLM-13): No; Synergy analysis for combinations with Compound 1 (OCI-AML-2): No; Synergy analysis for combinations with Compound 1 (HL-60): No |
| COC(=O)C[C@](O)(CCCC(C)(C)O)C(=O)O[C@@H]1C(OC)=C[C@]23CCCN2CCc2cc4c(cc2[C@H]13)OCO4 [Omacetaxine] |  | No | No | No | No | No | No | No | No | No | No |  |
| N#CCNC(=O)c1ccc(-c2ccnc(Nc3ccc(N4CCOCC4)cc3)n2)cc1 [momelotinib, reference compound] | Yes |  |  |  |  |  |  |  |  |  |  | single agent sensitivity [3]: more sensitive |
| CO[C@H]1/C=C\C=C(/C)C(=O)NC2=CC(=O)C(NCCN(C)C)=C(C[C@@H](C)C[C@H](OC)[C@H](O)[C@@H](C)/C=C(\C)[C@@H]1OC(N)=O)C2=O [Alvespimycin] |  | No | No | No | No | No | Yes | No | No | Yes | No |  |
| COc1ccc(-c2c(-c3ccc(C#N)c(F)c3)nc(N3CCC(N)CC3)n(C)c2=O)cc1F [Compound B, 4-[2-(4-amino-piperidin-1-yl)-5-(3-fluoro-4-methoxy-phenyl)-1-methyl-6-oxo-1,6-dihydropyrimidin-4-yl]-2-fluoro-benzonitrile, reference compound] |  | No | Yes | No | No | No | No | No | Yes | No | No |  |
